Assay [1] relates to ISC-enriched organoids. The experiment in a line: Primary screen, 384-well 2.5-D organoid differentiation (ENR+CD, 6 days): basal lysozyme secretion (LYZ.NS). It counts as cell-based, murine. The note with it: for SSMD.LYZ.NS: strictly standardized mean difference; for SSMD.LYZ.NS / Dose.FC.LYZ.NS: primary screen; for Dose.FC.LYZ.NS: FC vs plate median; for Z.LYZ.NS: standard z score of FC. From the text: (§1) High-throughput screening.

In assay [2] the test system is ISC-enriched organoids. The experiment in a line: Primary screen, 384-well 2.5-D organoid differentiation (ENR+CD, 6 days, Target Selective Inhibitor Library, vs whole-plate median): ATP (CellTiter-Glo 3D, CTG). The note with it: for Z.CTG: standard z score of FC; for SSMD.CTG: strictly standardized mean difference; for SSMD.CTG / Dose.FC.CTG: primary screen; for Dose.FC.CTG: FC vs plate median. Background: Cellular ATP, detected with luciferase, serves as a proxy for viable cell number.

Assay [3] deals with ISC-enriched organoids. Briefly: Primary screen, 384-well 2.5-D organoid differentiation (ENR+CD, 6 days): carbachol-induced lysozyme secretion (LYZ.S). The note with it: primary screen; for Z.LYZ.S: standard z score; for SSMD.LYZ.S: strictly standardized mean difference; for Dose.FC.LYZ.S: FC vs plate median. It counts as cell-based, murine.
From the text: as §1

Where [4] appears, read: 1st of the 4 dose lines of the treatment (dose not given).
Setting [5] is: 2nd of the 4 dose lines of the treatment (dose not given).
Setting [6] is: 3rd of the 4 dose lines of the treatment (dose not given).
Setting [7] is: 4th of the 4 dose lines of the treatment (dose not given).

Take `Nc1nc(CC(=O)Nc2ccc(CCNC[C@H](O)c3ccccc3)cc2)cs1` [Mirabegron]: the SSMD.LYZ.NS was 1.039 in the assay with ISC-enriched organoids [1] (setting [4]), −0.280 in the assay on ISC-enriched organoids [1] (setting [5]), −0.346 in the assay with ISC-enriched organoids [1] (setting [6]) and 0.113 with ISC-enriched organoids [1] (setting [7]). The Z.CTG was 0.069 in the assay with ISC-enriched organoids [2] (Dose 0.08 uM), −0.801 in the assay with ISC-enriched organoids [2] (Dose 0.40 uM), 0.046 in the assay on ISC-enriched organoids [2] (Dose 2.00 uM) and −0.123 with ISC-enriched organoids [2] (Dose 10.00 uM). Moreover, the SSMD.CTG with ISC-enriched organoids [2] (setting [4]) was 0.101; with ISC-enriched organoids [2] (setting [5]), −0.380; in the assay with ISC-enriched organoids [2] (setting [6]), 0.068; with ISC-enriched organoids [2] (setting [7]), −0.150. The Z.LYZ.S in the assay with ISC-enriched organoids [3] (setting [4]) is on record as 0.958; with ISC-enriched organoids [3] (setting [5]), −0.103; with ISC-enriched organoids [3] (setting [6]) it was −0.317; in the assay with ISC-enriched organoids [3] (setting [7]), −0.065. The SSMD.LYZ.S was 0.863 in the assay on ISC-enriched organoids [3] (setting [4]), −0.090 with ISC-enriched organoids [3] (setting [5]), −0.363 in the assay with ISC-enriched organoids [3] (setting [6]) and −0.064 in the assay with ISC-enriched organoids [3] (setting [7]).
As for `O=C(NCCN1CCOCC1)c1ccc(Cl)cc1` [Moclobemide (Ro 111163)], the Dose.FC.LYZ.NS is on record as 0.075 log 2 fold change with ISC-enriched organoids [1] (Dose 0.08 uM), 0.121 log 2 fold change with ISC-enriched organoids [1] (Dose 0.40 uM), 0.001 log 2 fold change in the assay with ISC-enriched organoids [1] (Dose 2.00 uM) and −0.028 log 2 fold change with ISC-enriched organoids [1] (Dose 10.00 uM). Moreover, the Z.LYZ.NS is 0.654 with ISC-enriched organoids [1] (Dose 0.08 uM), 1.055 in the assay with ISC-enriched organoids [1] (Dose 0.40 uM), 0.011 with ISC-enriched organoids [1] (Dose 2.00 uM) and −0.243 in the assay with ISC-enriched organoids [1] (Dose 10.00 uM). Further, the SSMD.LYZ.NS in the assay on ISC-enriched organoids [1] (setting [4]) is reported as 0.302; with ISC-enriched organoids [1] (setting [5]) it was 0.415; in the assay with ISC-enriched organoids [1] (setting [6]), 0.007; in the assay on ISC-enriched organoids [1] (setting [7]), −0.219. Also, the Dose.FC.CTG with ISC-enriched organoids [2] (Dose 0.08 uM) stood at 0.146 log 2 fold change; with ISC-enriched organoids [2] (Dose 0.40 uM), 0.106 log 2 fold change; in the assay with ISC-enriched organoids [2] (Dose 2.00 uM), 0.116 log 2 fold change; with ISC-enriched organoids [2] (Dose 10.00 uM) it was 0.042 log 2 fold change. In addition, the Z.CTG in the assay on ISC-enriched organoids [2] (Dose 0.08 uM) came out at 0.348; in the assay on ISC-enriched organoids [2] (Dose 0.40 uM), 0.252; in the assay with ISC-enriched organoids [2] (Dose 2.00 uM), 0.276; in the assay with ISC-enriched organoids [2] (Dose 10.00 uM), 0.100. In addition, the SSMD.CTG in the assay on ISC-enriched organoids [2] (setting [4]) is on record as 0.257; in the assay with ISC-enriched organoids [2] (setting [5]), 0.148; in the assay on ISC-enriched organoids [2] (setting [6]), 0.227; with ISC-enriched organoids [2] (setting [7]) it was 0.115. The Dose.FC.LYZ.S was found to be 0.147 log 2 fold change with ISC-enriched organoids [3] (Dose 0.08 uM), 0.094 log 2 fold change in the assay on ISC-enriched organoids [3] (Dose 0.40 uM), 0.012 log 2 fold change with ISC-enriched organoids [3] (Dose 2.00 uM) and 0.019 log 2 fold change in the assay on ISC-enriched organoids [3] (Dose 10.00 uM). Besides, the Z.LYZ.S with ISC-enriched organoids [3] (setting [4]) was 0.953; with ISC-enriched organoids [3] (setting [5]), 0.607; in the assay on ISC-enriched organoids [3] (setting [6]), 0.078; in the assay with ISC-enriched organoids [3] (setting [7]), 0.123. Besides, the SSMD.LYZ.S in the assay with ISC-enriched organoids [3] (setting [4]) is listed as 0.495; in the assay on ISC-enriched organoids [3] (setting [5]), 0.348; in the assay with ISC-enriched organoids [3] (setting [6]), 0.056; in the assay with ISC-enriched organoids [3] (setting [7]), 0.135.
Take `Cc1ccccc1C(=O)Nc1ccc(C(=O)N2CCCC(N(C)C)c3ccccc32)cc1` (stereo not shown) [Mozavaptan]: the SSMD.LYZ.NS in the assay with ISC-enriched organoids [1] (setting [4]) is reported as 0.283; with ISC-enriched organoids [1] (setting [5]), −0.203; in the assay on ISC-enriched organoids [1] (setting [6]), 0.340; in the assay with ISC-enriched organoids [1] (setting [7]), −1.544. Moreover, the Z.CTG in the assay with ISC-enriched organoids [2] (Dose 0.08 uM) is recorded as 0.765; in the assay on ISC-enriched organoids [2] (Dose 0.40 uM), 0.562; in the assay on ISC-enriched organoids [2] (Dose 2.00 uM), 0.259; in the assay with ISC-enriched organoids [2] (Dose 10.00 uM), −0.803. The SSMD.CTG with ISC-enriched organoids [2] (setting [4]) was 0.521; in the assay with ISC-enriched organoids [2] (setting [5]), 0.427; with ISC-enriched organoids [2] (setting [6]), 0.274; in the assay with ISC-enriched organoids [2] (setting [7]) it was −0.812. For the same compound, the Z.LYZ.S is 0.557 in the assay on ISC-enriched organoids [3] (setting [4]), 1.068 in the assay with ISC-enriched organoids [3] (setting [5]), 0.688 with ISC-enriched organoids [3] (setting [6]) and −1.745 in the assay with ISC-enriched organoids [3] (setting [7]). In addition, the SSMD.LYZ.S with ISC-enriched organoids [3] (setting [4]) is 0.266; with ISC-enriched organoids [3] (setting [5]) it was 0.560; with ISC-enriched organoids [3] (setting [6]) it was 0.775; in the assay on ISC-enriched organoids [3] (setting [7]), −1.480.
On to `FC(F)(F)c1ccc(/C=C/c2nc(COc3ccc(CCCCn4ccnn4)cc3)co2)cc1` [Mubritinib (TAK 165)], for which the Dose.FC.LYZ.NS with ISC-enriched organoids [1] (Dose 0.08 uM) is −0.057 log 2 fold change; in the assay with ISC-enriched organoids [1] (Dose 0.40 uM) it was −0.194 log 2 fold change; in the assay with ISC-enriched organoids [1] (Dose 2.00 uM) it was −0.224 log 2 fold change; with ISC-enriched organoids [1] (Dose 10.00 uM) it was −0.240 log 2 fold change. Also, the Z.LYZ.NS with ISC-enriched organoids [1] (Dose 0.08 uM) is given as −0.500; in the assay with ISC-enriched organoids [1] (Dose 0.40 uM), −1.687; in the assay on ISC-enriched organoids [1] (Dose 2.00 uM), −1.950; with ISC-enriched organoids [1] (Dose 10.00 uM), −2.092. The Dose.FC.CTG with ISC-enriched organoids [2] (Dose 0.08 uM) is on record as −0.524 log 2 fold change; in the assay with ISC-enriched organoids [2] (Dose 0.40 uM) it was −0.340 log 2 fold change; with ISC-enriched organoids [2] (Dose 2.00 uM), −0.530 log 2 fold change; with ISC-enriched organoids [2] (Dose 10.00 uM), −0.519 log 2 fold change. For the same compound, the Z.CTG is listed as −1.252 in the assay on ISC-enriched organoids [2] (Dose 0.08 uM), −0.812 in the assay with ISC-enriched organoids [2] (Dose 0.40 uM), −1.265 with ISC-enriched organoids [2] (Dose 2.00 uM) and −1.240 with ISC-enriched organoids [2] (Dose 10.00 uM). The Dose.FC.LYZ.S in the assay on ISC-enriched organoids [3] (Dose 0.08 uM) is listed as −0.119 log 2 fold change; in the assay with ISC-enriched organoids [3] (Dose 0.40 uM), −0.154 log 2 fold change; in the assay with ISC-enriched organoids [3] (Dose 2.00 uM) it was −0.299 log 2 fold change; in the assay on ISC-enriched organoids [3] (Dose 10.00 uM) it was −0.294 log 2 fold change.
On to `CCCCCCCCCCCCCCCCn1cc[n+](Cc2ccccc2)c1C.[I-]` [NH125], for which the Dose.FC.LYZ.NS is −0.035 log 2 fold change in the assay on ISC-enriched organoids [1] (Dose 0.08 uM), −0.188 log 2 fold change in the assay with ISC-enriched organoids [1] (Dose 0.40 uM), −0.219 log 2 fold change with ISC-enriched organoids [1] (Dose 2.00 uM) and −0.263 log 2 fold change in the assay on ISC-enriched organoids [1] (Dose 10.00 uM). Further, the Z.LYZ.NS in the assay on ISC-enriched organoids [1] (Dose 0.08 uM) is recorded as −0.301; with ISC-enriched organoids [1] (Dose 0.40 uM) it was −1.634; with ISC-enriched organoids [1] (Dose 2.00 uM), −1.904; with ISC-enriched organoids [1] (Dose 10.00 uM) it was −2.293. Further, the Dose.FC.CTG with ISC-enriched organoids [2] (Dose 0.08 uM) is reported as −0.347 log 2 fold change; in the assay with ISC-enriched organoids [2] (Dose 0.40 uM) it was −0.508 log 2 fold change; with ISC-enriched organoids [2] (Dose 2.00 uM) it was −1.106 log 2 fold change; in the assay with ISC-enriched organoids [2] (Dose 10.00 uM), −1.787 log 2 fold change. For the same compound, the Z.CTG is listed as −0.829 in the assay with ISC-enriched organoids [2] (Dose 0.08 uM), −1.213 in the assay on ISC-enriched organoids [2] (Dose 0.40 uM), −2.641 in the assay with ISC-enriched organoids [2] (Dose 2.00 uM) and −4.268 in the assay with ISC-enriched organoids [2] (Dose 10.00 uM). Further, the Dose.FC.LYZ.S in the assay on ISC-enriched organoids [3] (Dose 0.08 uM) is listed as −0.114 log 2 fold change; with ISC-enriched organoids [3] (Dose 0.40 uM), −0.237 log 2 fold change; in the assay with ISC-enriched organoids [3] (Dose 2.00 uM), −0.358 log 2 fold change; with ISC-enriched organoids [3] (Dose 10.00 uM) it was −0.374 log 2 fold change.
Regarding `CC(C)(Cc1ccc2ccccc2c1)NC[C@@H](O)COc1cccc(Cl)c1C#N` [NPS-2143], the Dose.FC.LYZ.NS was 0.162 log 2 fold change with ISC-enriched organoids [1] (Dose 0.08 uM), −0.048 log 2 fold change in the assay on ISC-enriched organoids [1] (Dose 0.40 uM), −0.077 log 2 fold change in the assay with ISC-enriched organoids [1] (Dose 2.00 uM) and −0.069 log 2 fold change in the assay with ISC-enriched organoids [1] (Dose 10.00 uM). The Z.LYZ.NS is 1.413 in the assay on ISC-enriched organoids [1] (Dose 0.08 uM), −0.416 in the assay with ISC-enriched organoids [1] (Dose 0.40 uM), −0.674 in the assay on ISC-enriched organoids [1] (Dose 2.00 uM) and −0.597 in the assay with ISC-enriched organoids [1] (Dose 10.00 uM). The Dose.FC.CTG in the assay with ISC-enriched organoids [2] (Dose 0.08 uM) is 0.149 log 2 fold change; in the assay on ISC-enriched organoids [2] (Dose 0.40 uM), −0.195 log 2 fold change; with ISC-enriched organoids [2] (Dose 2.00 uM), −0.246 log 2 fold change; in the assay on ISC-enriched organoids [2] (Dose 10.00 uM), −0.118 log 2 fold change. The Z.CTG with ISC-enriched organoids [2] (Dose 0.08 uM) is 0.356; in the assay with ISC-enriched organoids [2] (Dose 0.40 uM), −0.466; in the assay with ISC-enriched organoids [2] (Dose 2.00 uM), −0.587; in the assay on ISC-enriched organoids [2] (Dose 10.00 uM), −0.282. For the same compound, the Dose.FC.LYZ.S in the assay with ISC-enriched organoids [3] (Dose 0.08 uM) was 0.147 log 2 fold change; in the assay with ISC-enriched organoids [3] (Dose 0.40 uM), −0.062 log 2 fold change; in the assay with ISC-enriched organoids [3] (Dose 2.00 uM), −0.161 log 2 fold change; in the assay on ISC-enriched organoids [3] (Dose 10.00 uM), −0.116 log 2 fold change.
